Laboratory results: patent US7842856B2, “Herbicide resistance gene, compositions and methods” (The Board of Trustees of the University of Illinois, priority 2005, dated 2010)

How the values were obtained:
[1] = system: A. tuberculatus F1(S) hybrid (maternal parent S); assay: Herbicide dose-response on whole plants, F1(S) line; assay type: in vivo, Amaranthus tuberculatus (waterhemp)
[2] = system: A. tuberculatus F1(R) hybrid (maternal parent R); assay: Herbicide dose-response on whole plants, F1(R) line; assay type: in vivo, Amaranthus tuberculatus (waterhemp); details: for GR50 (growth reduction by 50%) F1(R): F1(R) line
[3] = system: A. tuberculatus PPO2L with glycine at position 210 expressed in E. coli SASX38; assay type: cell-based; details: LB with lactofen (100 nM, FIG. 6), 37° C., 14 hrs

SMILES	GR50 (growth reduction by 50%) F1(S) ([1]; 10 DAT) [g ai ha^−1]	GR50 (growth reduction by 50%) F1(R) ([2]; 10 DAT) [g ai ha^−1]	growth of E. coli on lactofen-supplemented medium [3]	GR50 (growth reduction by 50%) F1(S) ([1]; 15 DAT) [g ai ha^−1]	GR50 (growth reduction by 50%) F1(R) ([2]; 15 DAT) [g ai ha^−1]	fold higher doses survived compared with S plants ([2]; lines heterozygous for resistance vs S plants (FIG. 2; Table 2)) [fold]
O=C(O)c1cc(Oc2ccc(C(F)(F)F)cc2Cl)ccc1[N+](=O)[O-] [Acifluorfen, 5-{2-chloro-4-(trifluoromethyl)phenoxy}-2-nitrobezoic acid]	4.1	3.8	–	–	–	–
CCOC(=O)C(C)OC(=O)c1cc(Oc2ccc(C(F)(F)F)cc2Cl)ccc1[N+](=O)[O-] (racemic) [Lactofen, (±)-2-ethoxy-1-methyl-2-oxoethyl 5-{2-chloro-4-(trifluoromethyl)phenoxy}-2-nitrobenzoate]	1.6	0.7	dramatically inhibited growth	13	12	31
